Measured values: PubChem BioAssay (NCI)
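How tested: cells in 96-well plates exposed to compound for 48 hours at five concentrations. TGI: concentration producing complete growth inhibition.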

Columns and labels:
Assay in all cases: NCI anticancer screen, dose series, 48 h
[1] = test system: A498 renal
[2] = test system: A549 NSCLC
[3] = test system: DU-145 prostate
[4] = test system: HCT-15 colon
[5] = test system: HS 578T breast
[6] = test system: LOX IMVI melanoma
[7] = test system: MALME-3M melanoma
[8] = test system: MCF7 breast
[9] = test system: NCI-H226 lung
[10] = test system: NCI-H522 lung
[11] = test system: RPMI-8226 leukemia
[12] = test system: SF-268 CNS
[13] = test system: SK-MEL-2 melanoma
[14] = test system: SK-MEL-28 melanoma
[15] = test system: SN12C renal
[16] = test system: SNB-19 CNS
[17] = test system: U251 CNS
[18] = test system: UACC-62 melanoma
[19] = test system: UO-31 renal
[20] = test system: CCRF-CEM leukemia

| SMILES | TGI [1] [µM] | TGI [2] [µM] | TGI [3] [µM] | TGI [4] [µM] | TGI [5] [µM] | TGI [6] [µM] | TGI [7] [µM] | TGI [8] [µM] | TGI [9] [µM] | TGI [10] [µM] | TGI [11] [µM] | TGI [12] [µM] | TGI [13] [µM] | TGI [14] [µM] | TGI [15] [µM] | TGI [16] [µM] | TGI [17] [µM] | TGI [18] [µM] | TGI [19] [µM] | TGI [20] [µM] |
| --- | --- | --- | --- | --- | --- | --- | --- | --- | --- | --- | --- | --- | --- | --- | --- | --- | --- | --- | --- | --- |
| CC(C)NCCC(O)c1cc2ccccc2o1 (stereo not drawn) | > 100 | > 100 | > 100 | > 100 | > 100 | > 100 | > 100 | > 100 | > 100 | > 100 | > 100 | > 100 | > 100 | > 100 | > 100 | > 100 | > 100 | > 100 | > 100 |  |
| O=C1/C(=C/c2ccc(Cl)cc2)N=C(c2ccccc2)N1c1ccc(S(=O)(=O)Nc2nccs2)cc1 | > 100 | > 100 | > 100 | > 100 | > 100 | > 100 | > 100 | 82.9 | > 100 |  | 49.5 | > 100 | 47.3 | > 100 | > 100 | > 100 | > 100 | 53.1 | > 100 | 87 |
| NC(CCOCCP(=O)(O)CCOCCC(N)C(=O)O)C(=O)O (stereo not drawn) |  | > 100 | > 100 | > 100 | > 100 |  |  | > 100 |  | > 100 | > 100 | > 100 | > 100 | > 100 | > 100 | > 100 | > 100 | > 100 | > 100 | > 100 |
| COc1cccc(CC2Cc3ccccc3CC(=O)N2)c1 (stereo not drawn) |  | > 100 | > 100 |  | 68.2 | 70.9 |  | 92 | > 100 |  | > 100 | > 100 | > 100 | > 100 | > 100 | > 100 | > 100 | > 100 | > 100 | > 100 |
| C=CCOC(=O)[C@@H]1C[C@@H](OC(C)(C)C)CN1C(=O)[C@@H]1[C@H]2OC(C)(C)O[C@H]2CN1C(=O)OCC1c2ccccc2-c2ccccc21 | 30.5 | 31.9 | 8.12 | 39.4 | 42.5 | 4.87 | 39.2 | > 100 | 47.7 | 1.39 | 32.3 | 40.1 | > 55 | 34.6 | 32.2 | 33 | 28.8 | 34.5 | 0.614 | 36.3 |
| OC1CN2Cc3cc4c(cc3[C@]13C=C[C@@H](O)CC23)OCO4 (stereo partly drawn) | > 100 | > 100 | 71.9 | > 100 | > 100 | > 100 | > 100 | > 100 | > 100 | > 100 | > 100 | > 100 | > 100 | > 100 | > 100 | > 100 | > 100 | > 100 | > 100 | 48.5 |
| CC(C)C1OC(/C=C/c2ccccc2)OCC1(C)C (stereo not drawn) | 63.7 | > 100 | > 100 | > 100 | 88.7 | 36.6 | 25.8 | > 100 | 63 | 32.2 | 47 | > 100 | 37.5 | > 100 | 44 | > 100 | 60.8 | > 100 | > 100 | 41.8 |
| c1ccc(-c2nnc(-c3nsc4ccccc34)o2)cc1 |  | > 100 |  | > 100 |  | > 100 |  |  |  |  | > 100 | > 100 | > 100 | > 100 | > 100 | > 100 | > 100 | > 100 | > 100 | > 100 |
| CCOC(=O)C1=C(C)N(NC(N)=O)C2(O)CCCC(=O)C12C (stereo not drawn) | > 100 | > 100 |  | > 100 |  | > 100 | > 100 |  | > 100 | > 100 | > 100 |  | > 100 | > 100 | > 100 | > 100 | > 100 | > 100 |  |  |
| COc1ccc(Cc2nccc3cc(OC)c(OC)cc23)cc1OC | > 100 | > 100 | > 100 | > 100 | > 100 | > 100 |  | > 100 | > 100 | > 100 | > 100 | > 100 | > 100 | > 100 | > 100 | > 100 | > 100 | > 100 | > 100 | > 100 |
| CCCCC(=O)Oc1ccc2c(C)cc(=O)oc2c1 | > 100 | > 100 | > 100 |  | > 100 | > 100 | > 100 | > 100 | > 100 | > 100 | > 100 | > 100 | > 100 | > 100 | > 100 | > 100 | > 100 | > 100 | > 100 | > 100 |
| O=C(O)c1oc(C(=O)O)c(C(=O)O)c1C(=O)O | > 100 | > 100 | > 100 | > 100 | > 100 | > 100 | > 100 |  | > 100 | > 100 | > 100 | > 100 | > 100 | > 100 | > 100 | > 100 | > 100 | > 100 | > 100 | > 100 |
| c1ccc(C[n+]2cccc(-c3cc4ccccc4[nH]3)c2)cc1 | > 100 | > 100 | > 100 | > 100 | > 100 | 37.9 | 34.1 | 98.8 | > 100 | 53.9 | 41.2 | > 100 | 32.8 | 38 | 42.6 | > 100 | > 100 | 32.1 | > 100 | 38.6 |
| N=C(N)SCc1cccc2c(=O)cc(-c3ccccc3)oc12 | 35.8 | 29 | 16.2 | > 65.7 | 45.4 | 28.3 | 27.2 | 16.3 | 58 | 13.6 | 18.4 | 45.8 | 25.2 | 6.37 | 25.9 | > 61.1 | 27.3 | 32.4 | 11.3 | 18.6 |
| O=C1OCc2cccc3c2-c2c1cccc2C(=O)OC3 |  |  |  | > 100 |  |  | > 100 |  |  |  | > 100 | > 100 | > 100 | > 100 |  | > 100 | > 100 | > 100 | > 100 |  |
| CCCCS(=O)(=O)Nc1ccc(Nc2c3ccccc3nc3ccccc23)c(OC)c1 | 9.85 | 7.07 |  | 9.11 |  | 3.85 | 7.99 | 17.4 | 16.9 | 18.7 | > 21.4 | 14.5 | 30.9 | 16.4 | 5.77 | 14.5 | 5.85 | 7.48 | 10.2 | 6.26 |
| NC(Cc1ccccc1)(C(=O)O)C(=O)O | > 100 | > 100 | > 100 | > 100 | > 100 | > 100 | > 100 | > 100 | > 100 | > 100 | > 100 | > 100 | > 100 | > 100 | > 100 | > 100 | > 100 | > 100 | > 100 | > 100 |
| O=C(O)C12CCCC(CCC1)C2 | > 100 | > 100 |  | > 100 |  | > 100 | > 100 |  |  | > 100 | > 100 | > 100 | > 100 | > 100 | > 100 | > 100 | > 100 | > 100 | > 100 | > 100 |
